From patent US20220288057A1, “CONJOINT THERAPY FOR TREATING SEIZURE DISORDERS” (XENON PHARMACEUTICALS INC., priority 2021, published 2022)
Several values for one entry are separate records, joined by “and”; a condition that tells them apart may be missing. Equal values may be shown once. Read-outs that look alike come from different tables or passages of the source.

Columns and labels:
[1] = tested on: CF-1 mouse; assay: Clinical observations / behavioral signs in AC-MES studies; type: in vivo
Experimental: Any qualitative changes from normal behavior were recorded.
Five oral (PO) doses of Compound A were each tested in the AC-MES model. Thirty minutes after administration of Compound A at 1 mg/kg (n=8), 3 mg/kg (n=8), 5 mg/kg (n=16), 7.5 mg/kg (n=7), and 10 mg/kg (n=17) via oral gavage to male CF-1 mice (body weights 28.2 to 43.8 g), the mice underwent a 60 Hz corneal electrical stimulus (0.2 seconds duration, 40 mA). This stimulus elicited a tonic hindlimb extension in all vehicle-dosed animals. […] An observational neurological assessment (qualitative test) was also conducted at the time of testing as a tolerability screen. Terminal plasma and brain samples were collected from all animals to obtain the levels of Compound A concentration, and to understand the relationship between efficacy and drug concentration.
(§1) The Blinding and Randomization, Clinical Observations, AC-MES Assay, Sample Collection and Preparation, Plasma and Brain Samples Analysis, and Bioanalysis Procedures in Example 4 were identical to those used in Example 2.

[2] = tested on: AC-MES-induced tonic seizures in CF-1 mice; assay: Mouse AC-MES assay (60 Hz, 40 mA, 0.2 s); type: in vivo; conditions: for EC50: Compound A PO 0.5 h alone
Experimental: The efficacy of Compound A and its pharmacological interaction with Lacosamide was evaluated after oral dosing in the mouse maximal electroshock seizure (AC-MES) assay.
The objective of these studies was to characterize the dose-dependent anticonvulsant activity of Compound A and its pharmacological interaction with Lacosamide in the AC-MES assay in mice after a single oral administration of the compounds. The AC-MES assay is typically responsive to non-selective sodium channel blockers and potassium channel openers, and has been used as a translational animal model for partial onset seizures.
The anticonvulsant efficacy of Compound A and Lacosamide, and the effect of combining Compound A with Lacosamide were tested in the AC-MES assay in male CF-1 mice following a single PO dose. Plasma and brain samples were obtained to understand the relationship between drug concentration and efficacy.
AC-MES Assay: The MES test has been extensively used in the search for anticonvulsant substances (Piredda et al., Löscher et al., and White et al.). The MES test is considered a model for generalized tonic-clonic (GTC) seizures and provides an indication of a compound's ability to prevent seizure spread. In the AC-MES model, an electroshock of alternating current (60 Hz, 40 mA) was delivered for 0.2 seconds by corneal electrodes (HSE-HA Rodent Shocker, Harvard Apparatus, model no: 73-0105). CF-1 mice were dosed PO (according to Standard Operating Procedure (SOP) TECH-006) with vehicle or Compound A 0.5 hours before the electroshock assay Immediately prior to the electroshock stimulation, the animals' eyes were anesthetized with a topical application of 0.5% Alcaine solution (proparacaine hydrochloride, one drop per eye). Mice were then restrained, the corneal electrodes applied, and the shock administered. In naïve animals, the seizure is characterized by an initial generalized tonic seizure with hindlimb tonic extensor component. An animal is considered protected from MES-induced seizures upon abolition of the hindlimb tonic extensor component of the seizure and is then scored “0”. […] Mice were euthanized immediately after an initial seizure score assessment following the electroshock for plasma and brain collection.
Data Processing and Analysis: All statistics were calculated using GraphPad Prism version 8 software. Concentration response curves were generated using the Hill Langmuir equation:
Y=B+(T−B)×x^n/(IC50^n+x^n), Equation 1
where: • B=bottom, set as 0. • T=top, set as 1. • n=the Hill coefficient, constrained to less than zero. • IC50=concentration of a compound required for 50% inhibition in vitro.
All group data is expressed as mean. Between-group differences were analyzed using Kruskal-Wallis followed by Dunn's multiple comparison test.
Plasma and brain samples were obtained to understand the relationship between drug concentration and efficacy.
as §1
Sample concentration determination and Data Processing and Analysis in Example 4 was identical to Example 2.

[3] = Study 2A, Compound A 1 mg/kg PO, 0.5 h
[4] = Study 2A, Compound A 5 mg/kg PO, 0.5 h
[5] = Study 2A, Compound A 10 mg/kg PO, 0.5 h
[6] = Study 2B, Compound A 5 mg/kg PO, 0.5 h
[7] = Study 2B, Compound A 7.5 mg/kg PO, 0.5 h
[8] = Study 2B, Compound A 10 mg/kg PO, 0.5 h
[9] = Study 2C, Compound A 3 mg/kg PO, 0.5 h, alone
[10] = dosed in combination with Cenobamate vs alone
[11] = Study 2A, Lacosamide 6 mg/kg PO, 2 h
[12] = Study 2A, Lacosamide 8 mg/kg PO, 2 h
[13] = Study 2B, Lacosamide 10 mg/kg PO, 2 h
[14] = Study 2C, Lacosamide 10 mg/kg PO, 2 h, alone
[15] = Study 2D, Lacosamide 6 mg/kg PO, 2 h
[16] = Study 2D, Lacosamide 20 mg/kg PO, 2 h

Structure (SMILES): NC(=O)O[C@@H](Cn1ncnn1)c1ccccc1Cl [Cenobamate, reference compound]
- Fraction with Behavioral Signs ([1]; Study 4D, Cenobamate 3 mg/kg single oral dose): 0/8
- Fraction with Behavioral Signs ([1]; Study 4D, Cenobamate 10 mg/kg single oral dose): 0/8
- Fraction with Behavioral Signs ([1]; Study 4D, Cenobamate 30 mg/kg single oral dose): 0/8
- Fraction with Behavioral Signs ([1]; Study 4E, Cenobamate 3 mg/kg single oral dose): 0/8
- Fraction with Behavioral Signs ([1]; Study 4E, Cenobamate 5 mg/kg single oral dose): 0/8
- Fraction with Behavioral Signs ([1]; Study 4E, Cenobamate 7.5 mg/kg single oral dose): 0/8
- Fraction with Behavioral Signs ([1]; Study 4F, Cenobamate 5 mg/kg PO alone): 0/8
- fraction of animals seizing ([2]; Cenobamate 7.5 mg/kg PO, 2 h, alone): 3/7
- fraction of animals seizing ([2]; Cenobamate 10 mg/kg PO, 2 h, alone): 1/8
- fraction of animals seizing ([2]; Cenobamate 30 mg/kg PO, 2 h, alone): 0/8
- fraction of animals seizing ([2]; Cenobamate lower doses of 3 and 5 mg/kg PO, 2 h, alone): 7/8
- Fraction Seizing ([2]; Study 4D, Cenobamate 3 mg/kg single oral dose, 2 h pre-treatment, vehicle 8/8): 8/8
- Fraction Seizing ([2]; Study 4D, Cenobamate 10 mg/kg single oral dose, 2 h pre-treatment, vehicle 8/8): 1/8
- Fraction Seizing ([2]; Study 4D, Cenobamate 30 mg/kg single oral dose, vehicle 8/8): 0/8
- Fraction Seizing ([2]; Study 4E, Cenobamate 3 mg/kg single oral dose, 2 h pre-treatment, vehicle 8/8): 6/7
- Fraction Seizing ([2]; Study 4E, Cenobamate 5 mg/kg single oral dose, 2 h pre-treatment, vehicle 8/8): 6/7
- Fraction Seizing ([2]; Study 4E, Cenobamate 7.5 mg/kg single oral dose, 2 h pre-treatment, vehicle 8/8): 3/8
- fraction of animals seizing ([2]; Study 4F, Cenobamate 5 mg/kg PO, 2 h, alone): 8/8
- Fraction Seizing ([2]; Study 4F, Cenobamate 5 mg/kg PO alone, 2 h pre-treatment, vehicle 8/8): 8/8

Structure (SMILES): Cc1cc(N2CCc3cc(F)ccc3C2)cc(C)c1NC(=O)CC(C)(C)C [Compound A, N-[4-(6-fluoro-3,4-dihydro-1H-isoquinolin-2-yl)-2,6-dimethylphenyl]-3,3-dimethylbutanamide]
- Fraction with Behavioral Signs [1, 3]: 0/8
- Fraction with Behavioral Signs [1, 4]: 0/8
- Fraction with Behavioral Signs [1, 5]: 1/8
- plasma concentration of individual mouse showing behavioral signs (tremors, decreased activity, splayed hindlimbs) ([1]; Study 2A, Compound A 10 mg/kg group, 10 mg/kg): 390 nM
- Fraction with Behavioral Signs [1, 6]: 0/8
- Fraction with Behavioral Signs [1, 7]: 1/7
- plasma concentration of individual mouse showing behavioral signs (tremors, decreased activity, splayed hindlimbs) ([1]; Study 2B, Compound A 7.5 mg/kg group, 7.5 mg/kg): 750 nM
- Fraction with Behavioral Signs [1, 8]: 2/9
- plasma concentration of individual mouse showing behavioral signs (tremors, decreased activity, splayed hindlimbs) ([1]; Study 2B, Compound A 10 mg/kg group, two mice, 10 mg/kg): 516 nM and 610 nM and 520 nM
- Fraction with Behavioral Signs [1, 9]: 0/8
- plasma concentration of individual mouse showing behavioral signs (tremors, decreased activity, splayed hindlimbs) ([1]; Study 4A, Compound A 10 mg/kg group): 390 nM
- Behavioral Signs (fraction) ([1]; Study 4A, Compound A 1 mg/kg single oral dose): 0/8
- Behavioral Signs (fraction) ([1]; Study 4A, Compound A 5 mg/kg single oral dose): 0/8
- Behavioral Signs (fraction) ([1]; Study 4A, Compound A 10 mg/kg single oral dose): 1/8
- plasma concentration of individual mouse showing behavioral signs (tremors, decreased activity, splayed hindlimbs) ([1]; Study 4B, Compound A 7.5 mg/kg group): 750 nM
- plasma concentration of individual mouse showing behavioral signs (tremors, decreased activity, splayed hindlimbs) ([1]; Study 4B, Compound A 10 mg/kg group, two mice, 10 mg/kg): 610 nM and 520 nM
- Fraction with Behavioral Signs ([1]; Study 4B, Compound A 5 mg/kg single oral dose): 0/8
- Fraction with Behavioral Signs ([1]; Study 4B, Compound A 7.5 mg/kg single oral dose): 1/7
- Fraction with Behavioral Signs ([1]; Study 4B, Compound A 10 mg/kg single oral dose): 2/9
- Fraction with Behavioral Signs ([1]; Study 4C, Compound A 3 mg/kg single oral dose): 0/8
- Fraction with Behavioral Signs ([1]; Study 4F, Compound A 2 mg/kg PO alone): 0/8
- EC50 ([2]; composite of Studies 4A, 4B, 4C, 4F, read-out: EC50 for plasma): 296 nM
- EC50 ([2]; Mus musculus, po, 0.5 h, composite of Studies 2A, 2B, 2C, read-out: EC50 for brain tissue): 471 nM
- EC50 ([2]; Mus musculus, po, 0.5 h, composite of Studies 2A, 2B, 2C, read-out: EC50 for plasma): 300 nM
- EC50 ([2]; Mus musculus, po, 0.5 h, composite of Studies 4A, 4B, 4C, 4F, read-out: EC50 for brain tissue): 470 nM
- EC50 ([2]; Mus musculus, po, 0.5 h, composite of Studies 4A, 4B, 4C, 4F, read-out: EC50 for plasma): 300 nM
- Fraction Seizing [2, 3]: 8/8
- Fraction Seizing [2, 4]: 7/8
- Fraction Seizing [2, 5]: 3/8
- Fraction Seizing [2, 6]: 0/8
- Fraction Seizing [2, 7]: 0/7
- Fraction Seizing [2, 8]: 1/9
- Fraction Seizing [2, 9]: 2/8
- fraction of animals seizing ([2]; Study 4A, Compound A 1 mg/kg PO, 0.5 h): 8/8
- fraction of animals seizing ([2]; Study 4A, Compound A 5 mg/kg PO, 0.5 h): 7/8
- fraction of animals seizing ([2]; Study 4A, Compound A 10 mg/kg PO, 0.5 h): 3/8
- Fraction Seizing ([2]; Study 4A, Compound A 1 mg/kg single oral dose, 30 min pre-treatment, vehicle 8/8): 8/8
- Fraction Seizing ([2]; Study 4A, Compound A 5 mg/kg single oral dose, 30 min pre-treatment, vehicle 8/8): 7/8
- Fraction Seizing ([2]; Study 4A, Compound A 10 mg/kg single oral dose, 30 min pre-treatment, vehicle 8/8): 3/8
- fraction of animals seizing ([2]; Study 4B, Compound A 5 mg/kg PO, 0.5 h): 0/8
- fraction of animals seizing ([2]; Study 4B, Compound A 10 mg/kg PO, 0.5 h): 1/9
- Fraction Seizing ([2]; Study 4B, Compound A 5 mg/kg single oral dose, vehicle 8/8): 0/8
- Fraction Seizing ([2]; Study 4B, Compound A 7.5 mg/kg single oral dose, vehicle 8/8): 0/7
- Fraction Seizing ([2]; Study 4B, Compound A 10 mg/kg single oral dose, vehicle 8/8): 1/9
- fraction of animals seizing ([2]; Study 4C, Compound A 3 mg/kg PO, 0.5 h): 2/8
- Fraction Seizing ([2]; Study 4C, Compound A 3 mg/kg single oral dose, vehicle 8/8): 2/8
- fraction of animals seizing ([2]; Study 4F, Compound A 2 mg/kg PO, 0.5 h, alone): 5/8
- Fraction Seizing ([2]; Study 4F, Compound A 2 mg/kg PO alone, 0.5 h pre-treatment, vehicle 8/8): 5/8
- increase in the potency of Compound A, brain tissue [2, 10]: 14.2 fold
- increase in the potency of Compound A, plasma [2, 10]: 33.3 fold

Structure (SMILES): COC[C@@H](NC(C)=O)C(=O)NCc1ccccc1 [Lacosamide, reference compound]
- Fraction with Behavioral Signs [1, 11]: 0/8
- Fraction with Behavioral Signs [1, 12]: 0/8
- Fraction with Behavioral Signs [1, 13]: 0/8
- Fraction with Behavioral Signs [1, 14]: 0/8
- Fraction with Behavioral Signs [1, 15]: 0/8
- Fraction with Behavioral Signs [1, 16]: 0/8
- Fraction Seizing [2, 11]: 8/8
- Fraction Seizing [2, 12]: 8/8
- Fraction Seizing [2, 13]: 8/8
- Fraction Seizing [2, 14]: 6/8
- Fraction Seizing [2, 15]: 8/8
- Fraction Seizing [2, 16]: 3/8
